This is an account of results in article PMC12646587, “Advanced cardiotoxicity profiling using field potential imaging with UHD-CMOS-MEA in human iPSC-derived cardiomyocytes” (Toxicological Sciences, 2025).

The structures appear in SMILES notation.

For data set [1], the system named is human iPSC-derived cardiomyocytes. Kind of data set: Field potential imaging (FPI) with UHD-CMOS-MEA, acute drug treatment. It counts as cell-based. Here is the method:
Cryopreserved iCell Cardiomyocytes (FUJIFILM Cellular Dynamics, Inc.) were handled according to the supplier’s instructions. Cells were thawed in a 37 °C water bath for approximately 3 min and resuspended in iCell Thawing Medium to prepare a cell suspension at a final concentration of 1 × 10^7 cells/ml. A total of 10 µl of the cell suspension (100,000 cells per chip) was seeded directly onto the fibronectin-coated electrode area of each chip. Chips were incubated at 37 °C for 1 h to allow cell attachment, after which 1 ml of maintenance medium was gently added. […] Thereafter, medium exchanges were performed twice weekly by replacing half the medium volume.
Compounds were dissolved in culture medium containing 0.1% DMSO and administered cumulatively at increasing concentrations. Drug solutions were applied directly to the culture wells, and measurements were initiated 30 min after administration. […] All recordings were performed under spontaneous beating conditions, with no external pacing applied.
(§1) Recordings were performed at a sampling rate of 2 kHz, with a 2-min recording duration per condition. Data acquisition was controlled via proprietary software (Sony Semiconductor Solutions), and all raw signals were stored for offline analysis. All experiments were conducted in a humidified environment at 37 °C with 5% CO2, ensuring physiological conditions during both drug exposure and recording.
Spikes from hiPSC-derived cardiomyocytes were initially detected at each electrode using a voltage threshold of ±100 µV via BinViewer software (SCREEN Holdings Co., Ltd, Japan). The resulting spike data were then processed using a custom MATLAB (MathWorks, Natick, MA) script to perform beat detection. Firing count histograms were generated using a bin size of 0.5 ms, and peak detection within these histograms identified the timing and propagation duration of beats across the electrode array. For each electrode, the maximum spike amplitude and its corresponding peak timing were calculated to generate heat maps of field potential amplitude and activation timing. […]

Data set [2] concerns hiPSC-CMs. Description: Conventional MEA recording (16-electrode Axion Maestro), acute exposure. The format is cell-based, human. Particulars: acute. The method, then:
To enable comparison with the UHD-CMOS-MEA recordings, conventional extracellular field potential recordings were performed using 16-electrode MEA plates on a commercially available MEA system (Axion Maestro, Axion Biosystems), in accordance with the general principles of the CiPA initiative. hiPSC-CMs were cultured and maintained on the MEA plates under spontaneous beating conditions at 37 °C. Recordings were conducted after 10 to 14 DIV, and data acquisition and beat detection were performed using the built-in algorithms of the AxIS software (Axion Biosystems), without the use of external pacing. […] Each compound was applied under acute exposure conditions, and field potential recordings were obtained for 30 min following drug administration.
To evaluate the measurement capabilities of a conventional MEA system, the same set of 7 compounds was tested using the 16-electrode Axion Maestro platform.

Data set [3] has as its system human iPSC-derived cardiomyocytes. Description: PCA of beat parameters: cardiotoxicity risk and mechanism classification. It counts as cell-based. The method, then: Each parameter set was evaluated for its ability to separate cardiotoxic and non-cardiotoxic compounds while maintaining minimal variance among negative controls. […] To assess cardiotoxicity, PCA scores of test compounds were plotted in the PC space, and their positions were compared with the SD-defined zones of the negative control group. Risk levels were classified as follows: Low risk (within 1 SD), medium risk (between 1 and 2 SD), and high risk (beyond 2 SD). Dose-dependent cardiotoxicity potential was estimated based on displacement from the negative control cluster.
To establish a risk classification framework, the standard deviation (SD) range of negative control compounds in PCA space was used to define 3 zones: Within the SD range (low risk), between 1 and 2 SD (medium risk), and beyond 2 SD (high risk) (Fig. 6B). Risk levels derived from PCA distribution were compared with IC50 and Cmax values reported for each compound and associated ion channels (Table 5).

For data set [4] the following is noted: ref Lee et al. 2025; cited from earlier work.
Data set [5] relates to NaV. Particulars: ref Yao and Tseng 1997; cited from earlier work.
Data set [6] has as its system CaV. Particulars: ref Yao and Tseng 1997; cited from earlier work.
For data set [7], the system named is IKs. Also noted: method as in Davies et al. 1996. Particulars: ref Davies et al. 1996; cited from earlier work.
Data set [8] deals with cardiomyocytes. Particulars: FPDc10 (10% prolongation of FPDc); ref Nozaki et al. 2017; cited from earlier work.
The subject of data set [9] is cardiomyocytes. To be noted: CTD90 ↑; ref Lu et al. 2019; cited from earlier work.
Data set [10] deals with hERG. To be noted: read-out: IC50 hERG; ref Busch et al. 1998; cited from earlier work.
Data set [11] concerns human iPSC-derived cardiomyocytes. Description: FPI with UHD-CMOS-MEA, chronic exposure up to 96 h. The format is cell-based. Here is the method: as §1
Spikes from hiPSC-derived cardiomyocytes were initially detected at each electrode using a voltage threshold of ±100 µV via BinViewer software (SCREEN Holdings Co., Ltd, Japan). The resulting spike data were then processed using a custom MATLAB (MathWorks, Natick, MA) script to perform beat detection. Firing count histograms were generated using a bin size of 0.5 ms, and peak detection within these histograms identified the timing and propagation duration of beats across the electrode array. For each electrode, the maximum spike amplitude and its corresponding peak timing were calculated to generate heat maps of field potential amplitude and activation timing.
(§2) For mechanism-of-action classification and the cardiotoxicity assessment of doxorubicin, a one-way multivariate analysis of variance (MANOVA) was employed, using principal component (PC)1 and PC2 scores as dependent variables to evaluate significant differences between drug mechanism groups. Statistical significance was determined at P < 0.05.
To validate the chronic cardiotoxicity assessment using CMOS-MEA measurements, FPI was performed following long-term exposure to doxorubicin.

In data set [12] the test system is hiPSC-CMs. Description: Conventional MEA, chronic exposure. It counts as cell-based, human. Particulars: 0.1 μM.
Experimental: Furthermore, a direct comparison was conducted between the UHD-CMOS-MEA and conventional MEA systems under chronic exposure to 0.1 μM doxorubicin.
In data set [13] the test system is human iPSC-derived cardiomyocytes. Kind of data set: PCA and MANOVA of beat parameters after chronic exposure. It counts as cell-based. Particulars: 0.1 µM, relative to all DMSO time points. Here is the method:
as §2
PCA was conducted to integrate multiple parameter changes into a comprehensive index of cardiotoxicity. The PCA included 6 selected parameters: IBI, Amplitude, Amplitude STV, Area, Velocity, and Velocity STV (Table 7). The first 2 PCs accounted for a cumulative contribution of 69.4%. […] For statistical analysis of cardiotoxicity across time points, PCA plots were categorized into 15 groups based on concentration and exposure duration. MANOVA was performed to compare each group against the DMSO 0.5 h reference (Table 8). No significant differences were detected among DMSO time points.

The subject of data set [14] is mouse cardiomyocytes. Also noted: method as in Lin et al. 2024. To be noted: ref Lin et al. 2024; cited from earlier work.
Data set [15] has as its system rat cardiomyocytes. To be noted: ref Sag et al. 2011, Ikeda et al. 2019; cited from earlier work.
The subject of data set [16] is Engineered heart tissues derived from human iPSCs. Also noted: method as in Arefin et al. 2023. To be noted: ref Arefin et al. 2023, cited from earlier work.
For data set [17], the system named is monolayer hiPSC-CMs. To be noted: ref Maddah et al. 2020; cited from earlier work.
[18] abbreviates: acute, statistically significant change vs before.
[19] abbreviates: 0.1 μM, prolonged exposure (48 h).

For the compound `CN1CCN(CCCCN2C(=O)CN(/N=C/c3ccc(-c4ccc(Cl)cc4)o3)C2=O)CC1` [Azimilide], in data set [1] (setting [18]), the “IBI (interbeat interval)” value is “increased and ↑”; the “IBI STV” value was “significantly elevated and ↑”. Further, the “BR (beat rate)” value in [1] (acute, statistically significant change vs before, arrows = direction, – = none) is “decreased and ↓”. The “FPI (concentration at which changes were detected)” value in data set [1] (changed parameters in brackets in each cell) is 1 (BR, IBI, IBI STV) μM. Moreover, in data set [2], the IBI entry is listed as “prolongation”, the beat frequency result is reported as “consistent reductions”, the “field potential (spike) amplitude” value was “decreasing trend” and the “magnitude of change in propagation area” value is “less than 5%”. In [2], the propagation area result was “statistically significant reduction”. In addition, in data set [3], the “FPI PCA (concentration at which changes were detected)” value turned out to be 1 µM. For the same compound, in [4], the “Cmax Free” value was 0.07 ([Lee et al. 2025]) μM. In addition, the half-inhibitory concentration (IC50) in data set [5] was 19 µM. For the same compound, the IC50 in [6] is 17.8 µM. Besides, the half-inhibitory concentration (IC50) in data set [7] was 0.7 µM. Also, in data set [8], the MEA assay is 0.129 ([Nozaki et al. 2017]) (FPDc10) µM. In addition, the HCA assay in data set [9] is 1.0 ([Lu et al. 2019]) (CTD90 ↑) µM. Further, the concentration for half-maximal inhibition (IC50) in data set [10] was 5.2 µM.

Take `COc1cccc2c1C(=O)c1c(O)c3c(c(O)c1C2=O)C[C@@](O)(C(=O)CO)C[C@@H]3O[C@H]1C[C@H](N)[C@H](O)[C@H](C)O1` [Doxorubicin]: in data set [11] (0.03 µM, after 24 h), the beat area result was “significant decreases” and the peak potential result is given as “significant decreases”. The beat rate entry in data set [11] (0.03 µM, chronic exposure) is given as “did not significantly alter”. Moreover, in data set [11] (0.1 µM), the “changes in conventional parameters such as beat rate and IBI” value is reported as “evident only after 72 h”. The “exposure time at which a decline in conduction velocity was detected” value in data set [11] (0.1 μM, CMOS-MEA) came out at 24 h. Besides, in data set [11] (0.1 µM, beginning at 48 h), the beat area entry is reported as “reductions” and the peak potential entry is reported as “reductions”. In data set [11] (setting [19]), the conduction velocity result was “decrease”; the “temporal variability metrics (CV and STV)” value is reported as “increase”. Also, the “STV of peak potential” value in data set [11] (0.1 µM, within 0.5 h) is reported as “decreased”. Besides, the “concentration at which cardiotoxicity was detected” value in data set [11] (within 24 h, UHD-CMOS-MEA) turned out to be 30 nM. For the same compound, in data set [12], the “exposure time at which a reduction in spike amplitude began to be detected” value turned out to be 48 h. The “MANOVA of PCA groups vs DMSO” value in data set [13] was “significant differences were observed after 24 h”. Besides, the “concentration giving impaired Ca^2+ handling and reduced contractility” value in data set [14] is 1000 nM. Also, in data set [15], the “concentrations giving Ca^2+ handling abnormalities, apoptosis and contractile dysfunction” value is given as “only at micromolar concentrations”. For the same compound, the “effect on contractile force” value in data set [16] (125 or 500 nM) was “no observable effects”. For the same compound, the “concentration giving reduced contractile force” value in data set [16] (after 48 h of exposure) was 1000 nM. The “concentration at which structural changes were detected” value in data set [17] is “exceeding 0.3 μM”.
